{"source": "patent US20210222225A1", "about": "“Medium for Disk Diffusion Method to Evaluate Antibiotic Sensitivity” (priority 2018, published 2021)", "key": {"ABA A5_R": {"test_system": "ABA A5_R", "test": "Colistin disk diffusion, guanidine hydrochloride medium, A5_R", "type": "cell-based, Acinetobacter baumannii", "settings": "30% agar", "procedure": "(§1) A concentration of agar particles (BD Diagnostic, Sparks, Md., USA) in Mueller-Hinton broth medium (BD Diagnostic) was adjusted to 5.1 g/L, which is 30% of 17 g/L, and guanidine hydrochloride was added to a concentration of 500 μg/ml, 50 μg/ml, or 5 μg/ml. Then, solidification was performed. On a surface of each medium thus prepared was evenly inoculated each of colistin-susceptible (S) or -resistant (R) Acinetobacter baumannii (ABA) strain, colistin-susceptible (S) or -resistant (R) Klebsiella pnemoniae (KPN) strain, and colistin-susceptible (S) or -resistant (R) Pseudomonas aeruginosa (PAE) strain, and a colistin disk was placed thereon. Then, pictures of a growth inhibition zone, which had been formed clear, around the disk were taken for each strain, and the results are illustrated in FIGS. 8 to 10."}, "PAE P1477_S": {"test_system": "PAE P1477_S", "test": "Colistin disk diffusion, guanidine hydrochloride medium, P1477_S", "type": "cell-based, Pseudomonas aeruginosa", "settings": "30% agar", "procedure": "as §1"}, "[1]": {"test_system": "colistin-resistant strains", "test": "Colistin disk diffusion, colistin-resistant strains as a group", "type": "cell-based", "procedure": "As in Example 1, a concentration of agar particles (BD Diagnostic, Sparks, Md., USA) in Mueller-Hinton broth medium (BD Diagnostic) was adjusted to 5.1 g/L, which is 30% of 17 g/L, and protamine (Sigma-Aldrich, St Louis, Mo., USA) was added thereto at a concentration of 150 μg/ml or 100 μg/ml. Then, solidification was performed. To compare effects depending on concentrations of agar and protamine, Muller-Hinton agar medium (BD Diagnostic) containing agar at a concentration of 17 g/L and medium obtained by adding, to the Muller-Hinton agar medium, protamine at a concentration of 100 μg/ml were prepared as controls. […] Then, it was determined whether each strain was grown, and a diameter of a growth inhibition zone, which had been formed clear around the disk, was measured. […]\nOn a surface of each medium thus prepared was evenly inoculated each of colistin-susceptible (S) or -resistant (R) Acinetobacter calcoaceticus-baumannii complex (ACB) strain, Pseudomonas aeruginosa ATCC27853 strain, and mcr-1-harboring Enterobacter aerogenes strain, and a colistin disk was placed thereon. Then, it was determined whether each strain was grown, and a diameter of a colistin inhibition zone, which had been formed clear around the disk, was measured. […]"}, "KPN K4056_R": {"test_system": "KPN K4056_R", "test": "Colistin disk diffusion, guanidine hydrochloride medium, K4056_R", "type": "cell-based, Klebsiella pnemoniae", "settings": "30% agar", "procedure": "as §1"}, "[2]": {"test_system": "colistin-susceptible strains", "test": "Colistin disk diffusion, colistin-susceptible strains as a group (average, differences)", "type": "cell-based", "settings": "for Average, diameter (mm) of colistin inhibition zone, colistin-susceptible strains / Difference (S vs ACB-R), diameter (mm) of colistin inhibition zone / Difference (S vs mcr-1), diameter (mm) of colistin inhibition zone: protamine 100 μg/ml", "procedure": "To each MHA thus modified was added protamine (Sigma-Aldrich, St Louis, Mo., USA) at a concentration of 100 μg/ml, and solidification was performed. Then, on a surface of the medium was evenly inoculated each of colistin-susceptible (S) or -resistant (R) Acinetobacter calcoaceticus-baumannii complex (ACB) strain, Pseudomonas aeruginosa ATCC27853 strain, Escherichia coli ATCC25922 strain, and mcr-1-harboring Enterobacter aerogenes strain, and a colistin disk was placed thereon. Subsequently, a diameter of a growth inhibition zone (colistin inhibition zone), which had been formed clear by diffusion of colistin to the agar around the colistin disk, was measured.\nAs in Example 1, a concentration of agar particles (BD Diagnostic, Sparks, Md., USA) in Mueller-Hinton broth medium (BD Diagnostic) was adjusted to 5.1 g/L, which is 30% of 17 g/L, and protamine (Sigma-Aldrich, St Louis, Mo., USA) was added thereto at a concentration of 150 μg/ml or 100 μg/ml. Then, solidification was performed. To compare effects depending on concentrations of agar and protamine, Muller-Hinton agar medium (BD Diagnostic) containing agar at a concentration of 17 g/L and medium obtained by adding, to the Muller-Hinton agar medium, protamine at a concentration of 100 μg/ml were prepared as controls. On a surface of each medium thus prepared was evenly inoculated each of colistin-susceptible (S) or -resistant (R) Acinetobacter calcoaceticus-baumannii complex (ACB) strain, Pseudomonas aeruginosa ATCC27853 strain, and mcr-1-harboring Enterobacter aerogenes strain, and a colistin disk was placed thereon. Then, it was determined whether each strain was grown, and a diameter of a growth inhibition zone, which had been formed clear around the disk, was measured. The results are illustrated in FIG. 1.\nThe following four bacterial strains were used to determine conditions for agar: colistin-susceptible (S) or -resistant (R) Acinetobacter calcoaceticus-baumannii complex (ACB) strain (N=2), Pseudomonas aeruginosa ATCC27853 strain, and mcr-1-harboring Enterobacter aerogenes strain. A concentration of agar particles (BD Diagnostic, Sparks, Md., USA) in Mueller-Hinton broth medium (BD Diagnostic) was adjusted to 17 g/L or 5.1 g/L that is 30% of 17 g/L. To each modified MHA was added protamine (Sigma-Aldrich, St Louis, Mo., USA) at a concentration of 100 μg/ml.\nOn a surface of each medium thus prepared was evenly inoculated each of colistin-susceptible (S) or -resistant (R) Acinetobacter calcoaceticus-baumannii complex (ACB) strain, Pseudomonas aeruginosa ATCC27853 strain, and mcr-1-harboring Enterobacter aerogenes strain, and a colistin disk was placed thereon. Then, it was determined whether each strain was grown, and a diameter of a colistin inhibition zone, which had been formed clear around the disk, was measured. The results are illustrated in FIGS. 2A and 2B. Pictures of an inhibition zone around the disk were taken for each strain, and the results are illustrated in FIGS. 3A, 3B, 4A, 4B, 5A, 5B, 6A and 6B."}, "PAE P1624_R": {"test_system": "PAE P1624_R", "test": "Colistin disk diffusion, guanidine hydrochloride medium, P1624_R", "type": "cell-based, Pseudomonas aeruginosa", "settings": "30% agar", "procedure": "as §1"}, "[3]": {"settings": "guanidine hydrochloride 5 μg/ml"}, "[4]": {"settings": "guanidine hydrochloride 50 μg/ml"}, "[5]": {"settings": "guanidine hydrochloride 500 μg/ml"}, "[6]": {"settings": "agar 5.1 g/L (30%) compared with 17 g/L, FIG. 1"}, "[7]": {"settings": "agar 5.1 g/L and protamine 100 μg/ml compared with agar 17 g/L, FIGS. 2A to 6B"}}, "data": [{"substance": "colistin", "values": [{"measurement": "Disk diffusion (mm)", "setting": "ABA A5_R; [3]", "value": 10, "unit": "mm"}, {"measurement": "Disk diffusion (mm)", "setting": "ABA A5_R; [4]", "value": 10, "unit": "mm"}, {"measurement": "Disk diffusion (mm)", "setting": "ABA A5_R; [5]", "value": 10, "unit": "mm"}, {"measurement": "Disk diffusion (mm)", "setting": "PAE P1477_S; [3]", "value": 16, "unit": "mm"}, {"measurement": "Disk diffusion (mm)", "setting": "PAE P1477_S; [4]", "value": 16, "unit": "mm"}, {"measurement": "Disk diffusion (mm)", "setting": "PAE P1477_S; [5]", "value": 14, "unit": "mm"}, {"measurement": "size of a growth inhibition zone in the colistin-resistant strains", "setting": "[1]; [6]", "value": "maintained"}, {"measurement": "size of the growth inhibition zone in the colistin-resistant strains", "setting": "[1]; [7]", "value": "no changes"}, {"measurement": "Disk diffusion (mm)", "setting": "KPN K4056_R; [3]", "value": 12, "unit": "mm"}, {"measurement": "Disk diffusion (mm)", "setting": "KPN K4056_R; [4]", "value": 12, "unit": "mm"}, {"measurement": "Disk diffusion (mm)", "setting": "KPN K4056_R; [5]", "value": 10, "unit": "mm"}, {"measurement": "Average, diameter (mm) of colistin inhibition zone, colistin-susceptible strains", "setting": "[2]; 30% agar", "value": 16, "unit": "mm"}, {"measurement": "Difference (S vs ACB-R), diameter (mm) of colistin inhibition zone", "setting": "[2]; 30% agar", "value": 5, "unit": "mm"}, {"measurement": "Difference (S vs mcr-1), diameter (mm) of colistin inhibition zone", "setting": "[2]; 30% agar", "value": 5, "unit": "mm"}, {"measurement": "Average, diameter (mm) of colistin inhibition zone, colistin-susceptible strains", "setting": "[2]; 40% agar", "value": 15, "unit": "mm"}, {"measurement": "Difference (S vs ACB-R), diameter (mm) of colistin inhibition zone", "setting": "[2]; 40% agar", "value": 4, "unit": "mm"}, {"measurement": "Difference (S vs mcr-1), diameter (mm) of colistin inhibition zone", "setting": "[2]; 40% agar", "value": 5, "unit": "mm"}, {"measurement": "Average, diameter (mm) of colistin inhibition zone, colistin-susceptible strains", "setting": "[2]; 50% agar", "value": 14, "unit": "mm"}, {"measurement": "Difference (S vs ACB-R), diameter (mm) of colistin inhibition zone", "setting": "[2]; 50% agar", "value": 4, "unit": "mm"}, {"measurement": "Difference (S vs mcr-1), diameter (mm) of colistin inhibition zone", "setting": "[2]; 50% agar", "value": 3, "unit": "mm"}, {"measurement": "Average, diameter (mm) of colistin inhibition zone, colistin-susceptible strains", "setting": "[2]; 60% agar", "value": 14, "unit": "mm"}, {"measurement": "Difference (S vs ACB-R), diameter (mm) of colistin inhibition zone", "setting": "[2]; 60% agar", "value": 1, "unit": "mm"}, {"measurement": "Difference (S vs mcr-1), diameter (mm) of colistin inhibition zone", "setting": "[2]; 60% agar", "value": 4, "unit": "mm"}, {"measurement": "Average, diameter (mm) of colistin inhibition zone, colistin-susceptible strains", "setting": "[2]; 70% agar", "value": 14, "unit": "mm"}, {"measurement": "Difference (S vs ACB-R), diameter (mm) of colistin inhibition zone", "setting": "[2]; 70% agar", "value": 3, "unit": "mm"}, {"measurement": "Difference (S vs mcr-1), diameter (mm) of colistin inhibition zone", "setting": "[2]; 70% agar", "value": 4, "unit": "mm"}, {"measurement": "Average, diameter (mm) of colistin inhibition zone, colistin-susceptible strains", "setting": "[2]; 80% agar", "value": 13, "unit": "mm"}, {"measurement": "Difference (S vs ACB-R), diameter (mm) of colistin inhibition zone", "setting": "[2]; 80% agar", "value": 1, "unit": "mm"}, {"measurement": "Difference (S vs mcr-1), diameter (mm) of colistin inhibition zone", "setting": "[2]; 80% agar", "value": 4, "unit": "mm"}, {"measurement": "Average, diameter (mm) of colistin inhibition zone, colistin-susceptible strains", "setting": "[2]; 90% agar", "value": 13, "unit": "mm"}, {"measurement": "Difference (S vs ACB-R), diameter (mm) of colistin inhibition zone", "setting": "[2]; 90% agar", "value": 1, "unit": "mm"}, {"measurement": "Difference (S vs mcr-1), diameter (mm) of colistin inhibition zone", "setting": "[2]; 90% agar", "value": 3, "unit": "mm"}, {"measurement": "Average, diameter (mm) of colistin inhibition zone, colistin-susceptible strains", "setting": "[2]; 100% agar", "value": 13, "unit": "mm"}, {"measurement": "Difference (S vs ACB-R), diameter (mm) of colistin inhibition zone", "setting": "[2]; 100% agar", "value": 2, "unit": "mm"}, {"measurement": "Difference (S vs mcr-1), diameter (mm) of colistin inhibition zone", "setting": "[2]; 100% agar", "value": 3, "unit": "mm"}, {"measurement": "size of a growth inhibition zone in the colistin-susceptible strains", "setting": "[2]; [6]", "value": "increased"}, {"measurement": "diameter of the growth inhibition zone in the colistin-susceptible strains", "setting": "[2]; [7]", "value": "remarkably increased"}, {"measurement": "Disk diffusion (mm)", "setting": "PAE P1624_R; [3]", "value": 12, "unit": "mm"}, {"measurement": "Disk diffusion (mm)", "setting": "PAE P1624_R; [4]", "value": 12, "unit": "mm"}, {"measurement": "Disk diffusion (mm)", "setting": "PAE P1624_R; [5]", "value": 12, "unit": "mm"}]}]}
